This is an account of results in PubChem BioAssay AID449764 (Southern Research Specialized Biocontainment Screening …, 2010).

The structures appear in SMILES notation.

This assay relates to Mycobacterium tuberculosis H37Rv growth inhibition, no glycerol. The assay can be described thus: Confirmatory growth inhibition assay, Mycobacterium tuberculosis H37Rv, absence of glycerol (AID 449764).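 For all read-outs here: growth read after 7 days of incubation.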 The settings on record: for IC90: measured here: IC90 growth inhibition.

One may read the IC50 as the point on the concentration scale where inhibition reaches its midpoint. As a reminder, the IC90 is the point of the concentration-response curve where the effect stands at 90%. A higher IC90 goes with weaker potency.

For `COc1cc(/C=N/NC(=O)COc2ccc(C)cc2)ccc1OC(=O)c1cccs1`, the IC50 is 25.5 µM and the IC90 was found to be 30.1 µM.

On to `COc1ccc(CNC[C@@H](CCCCN(C)Cc2ccc(OC)cc2)N2C[C@H](c3ccccc3)N(CCc3ccc(Cl)c(Cl)c3)C(=O)C2=O)cc1`, for which the IC50 is 10.5 µM and the IC90 is 14 µM.

As to `CC(=O)OC1=Cc2c(ccc3ccc(=O)oc23)OC1(C)C`, the IC50 was 47.9 µM and the IC90 was greater than 100 µM.

As for `Oc1ccccc1NCC(O)Cn1ccc2ccccc21` (stereo not given), the IC50 is 11.5 µM and the IC90 is 12.3 µM.

As for `COc1ccc(C[C@H]2CN3C(=NC[C@H]3Cc3ccccc3)N2CCNC(=O)CCC2CCCCC2)cc1`, the IC50 was 22.4 µM and the IC90 was determined as 24.3 µM.

For the compound `NC(=O)c1cccn1-c1ncc(C(F)(F)F)cc1Cl`, the IC50 was 14.4 µM and the IC90 stood at 28.1 µM.

With `O=c1oc2ccccc2c2c1nc(C(F)(F)F)n2-c1ccccc1`, the IC50 is 13.9 µM and the IC90 stood at 23.8 µM.

For the compound `c1ccc(Cn2c(CNc3nc4ccccc4n3CCN3CCCCC3)nc3ccccc32)cc1`, the IC50 was 44.6 µM and the IC90 was 72.8 µM.

`c1ccc(-c2nc(N3CCCC3)nc3ccccc23)cc1`: the IC50 was 47 µM and the IC90 was found to be 53.5 µM.

In the case of `N#C/C(=N/Nc1ccc(OC(F)(F)F)cc1)C(N)=S`, the IC50 is 1.19 µM and the concentration for an effect of 90% (IC90) is 1.74 µM.

Take `CCN(CC)c1ccc(/C=C2\SC(=O)N(C(C)C)C2=O)o1`: the IC50 is 2.87 µM and the IC90 came to 4.69 µM.

Turning to `CCOc1cc(-c2c(C#N)c(=O)[nH]c3c2c(C)nn3-c2ccc(F)cc2)ccc1O`, the IC50 was 4.87 µM and the IC90 was 8.73 µM.

On to `CC1(O)CC(c2ccc(Cl)cc2)=NN1C(=O)c1ccc([N+](=O)[O-])cc1` (stereo not given), for which the IC50 was 7.79 µM and the IC90 was greater than 100 µM.

Turning to `Brc1ccc(N/N=C(/N=Nc2nn[nH]n2)c2ccccc2)cc1`, the IC50 is 14.4 µM and the IC90 is 23.3 µM.

On to `Cc1ccc(C)c(S(=O)(=O)N2CCC(c3nc4c(nnn4Cc4ccc5c(c4)OCCO5)c(=O)[nH]3)CC2)c1`, for which the IC50 is 24.2 µM and the IC90 is greater than 100 µM.

As for `Fc1cccc(CCN2CCNC[C@H]2Cc2cccc3ccccc23)c1`, the IC50 is 35.5 µM and the IC90 was found to be 46.3 µM.

As for `COc1ccc(OCCCC(=O)OC(C)C(=O)Nc2ccccc2[N+](=O)[O-])cc1` (stereo not given), the IC50 is 44.9 µM and the IC90 was greater than 100 µM.

In the case of `O=c1[nH]c2ccccc2c2oc(CCl)nc12`, the IC50 is 7.37 µM and the IC90 amounted to 22.1 µM.

Regarding `Cn1/c(=N/NC(=O)c2cccc(OC(F)F)c2)sc2ccccc21`, the IC50 is 9.17 µM and the IC90 amounted to 24.1 µM.

As to `CCOC(=O)C(C)Oc1ccc(NC(=O)C(Cl)(Cl)Cl)cc1` (stereo not given), the IC50 is 3.99 µM and the IC90 amounted to 5.86 µM.

For `CCOc1cccc2cc(C(=O)Nc3nccs3)c(=O)oc12`, the IC50 was 2.4 µM and the IC90 came out at 15.3 µM.

Turning to `CN(C)[C@@H]1C(=O)C(C(N)=O)=C(O)[C@@]2(O)C(=O)C3=C(O)c4c(O)cccc4[C@@](C)(O)C3C[C@@H]12` (stereo not given in full), the IC50 was 9.73 µM and the IC90 came out at 27.4 µM.

Take `COc1ccccc1NC(=O)CN1CCN(CC(=O)Nc2ccc3c(c2)OCO3)CC1`: the IC50 is 39.2 µM and the IC90 was found to be 60 µM.

On to `Nc1c2c(nc3sc4c(c13)CCCCC4)CCCC2`, for which the IC50 was 3.12 µM and the IC90 was determined as 8.41 µM.

Consider `CCOc1ncccc1C(=O)OCC(=O)N1CCc2ccccc21`, for which the half-maximal inhibitory concentration (IC50) was 25.5 µM and the IC90 is greater than 100 µM.

On to `COC(=O)c1ccc(NC(=S)NC(=O)C2CCC2)cc1`, for which the IC50 was 43.6 µM and the IC90 is greater than 100 µM.

On to `CCCCCn1c(=O)c2ccccc2n2c(CCl)nnc12`, for which the IC50 is 1.36 µM and the IC90 was determined as 6.07 µM.

`CCOC(=O)N1CCN(Cc2cc(Cl)c3cccnc3c2O)CC1`: the IC50 was 21.8 µM and the IC90 turned out to be 24.7 µM.

As for `C#CCOCCOCCOCCNc1nc(N2CCN(C(=O)CCCCCCCCCCNC(=O)[C@H](CCCCN)n3cc(CCCC(=O)O)nn3)CC2)nc(N2CCN(C(=O)CCCCCCCCCCNC(=O)[C@H](CCCN=C(N)N)n3cc(C[C@@H](C)CC)nn3)CC2)n1`, the IC50 is 6.73 µM and the IC90 stood at 9.93 µM.

For `Oc1[nH]c2ccccc2c1N=NC(=S)N1CCOCC1`, the IC50 is 22.9 µM and the IC90 came out at 24.3 µM.

As for `COc1nn(-c2ccccc2)c(=O)c(Cl)c1Cl`, the IC50 was 10.3 µM and the IC90 was determined as 13.6 µM.

For `CCCCn1c(NCc2ccc3c(c2)OCO3)nc2ccccc21`, the concentration for half-maximal inhibition (IC50) is 23.5 µM and the IC90 was determined as 25.9 µM.

`COc1ccc(NCc2nnc(SCC(=O)c3ccc(OC)cc3)o2)cc1`: the IC50 was 20.8 µM and the IC90 was 22.9 µM.

Take `Cc1ccccc1N1CCN(C(=O)c2ccc(Oc3ccc(C(F)(F)F)cn3)cc2)CC1`: the IC50 is 30.2 µM and the IC90 was determined as 54.6 µM.

Take `CCCCNc1c(-c2ccc(SC3CCCCC3)c(OC)c2)nc2ccc(C)cn12`: the IC50 was 11.8 µM and the IC90 amounted to 13.5 µM.

Turning to `CCCn1c(CC)nc([N+](=O)[O-])c1S(=O)(=O)c1ccccc1`, the IC50 is 18.2 µM and the IC90 was found to be 23.6 µM.

Consider `Cc1nc2scc(-c3cccs3)c2c(=O)n1-n1cccc1`, for which the IC50 is 88.7 µM and the IC90 was greater than 100 µM.

On to `CC(=O)N(Cc1ccc(F)cc1)C1=C(NCCc2ccccc2)C(=O)c2ccccc2C1=O`, for which the IC50 is 10.2 µM and the IC90 turned out to be 16.6 µM.

On to `Cc1ccc(-c2ccnc(=S)[nH]2)cc1`, for which the IC50 was 55.9 µM and the IC90 is greater than 100 µM.

Turning to `O=C(OCc1nc2ccccc2s1)c1ccc(Br)o1`, the IC50 is 33.5 µM and the IC90 was greater than 50 µM.

On to `O=C(CN1CCCCC1)Nc1nnc(-c2ccc([N+](=O)[O-])cc2)s1`, for which the IC50 was 44.9 µM and the IC90 was 69.6 µM.

In the case of `Cc1ncc(C23CC4CC(CC(C4)C2)C3)[nH]1`, the IC50 is 76.1 µM and the IC90 was 96.7 µM.

For the compound `CCOc1ccc(NC(=O)CSc2nc(O)c(C)c(=O)n2-c2ccc(F)cc2)cc1`, the IC50 was 34.7 µM and the IC90 stood at 59.2 µM.

Take `CC1=C(C)C(=O)C(CCCCC#CCCCC#CCO)=C(C)C1=O`: the IC50 is 24 µM and the IC90 stood at 26.2 µM.

Consider `COc1cccc2c1C(CO)N1C(C#N)C3CC(C(=O)O)C(C1C2)N3C` (stereo not given), for which the 50% inhibitory concentration (IC50) is 2.71 µM and the IC90 is 3 µM.

For `COc1ccccc1C1c2ccc3ccccc3c2Oc2ncn(CCN(C)C)c(=N)c21` (stereo not given), the IC50 was 25.2 µM and the IC90 worked out at 28.9 µM.

Regarding `O=C(C1CCCN(c2ncnc3c2nc2n3CCCCC2)C1)N1CCN(c2ccc(Cl)cc2)CC1` (stereo not given), the half-maximal inhibitory concentration (IC50) was 38.1 µM and the IC90 came out at 51 µM.

As for `O=c1c(C=NCCN2CCNCC2)c(O)n(C2CCCCC2)c(=O)n1C1CCCCC1`, the IC50 is 28.4 µM and the IC90 is 32.5 µM.

As for `CSc1cccc(CNC(=O)C2CCC(=O)N(Cc3cccc(C(F)(F)F)c3)C2)c1` (stereo not given), the IC50 is 36.9 µM and the IC90 is 41.8 µM.

Regarding `CC1CCCCC1NC(=O)c1ccc2c(c1)[nH]c(=O)n2C1CCCC1` (stereo not given), the IC50 was 9.65 µM and the IC90 worked out at 14.1 µM.
